How the values were obtained:
[1] = tested on: isolated rat heart; test: Effect on isolated rat heart (Langendorff's method); conditions: 1 × 10⁻⁸ mol/min, mean ± S.D.
Experimental: The effect of the compound of the present invention on heart of rats was examined by using the Langendorff's method [test compound: N-cyano-N′-(2-nitroxyethyl)-3-pyridinecarboximidamide (compound (13))]. Hearts were excised from male rats (weighing 250-350 g) and perfused at 80 cmH₂O in a Langendorff fashion. Krebs-Hensaleit bicarbonate solution (pH 7.4, 37°C) containing an 11 mM glucose which was oxygenated with 95% O₂- 5% CO₂ gas mixture was used as a perfusate. The left ventricular pressure was recorded by inserting a latex baloon into the left ventricle, and heart rate was determined from the pulse of it. Coronary perfusate flow was also measured with an electromagnetic flowmeter. The experiments were carried out by perfusing a perfusate containing the compound (13) for 10 minutes after an initial equilibration period for 30 minutes. As the control compound, nicorandil which has an effect opening potassium channel and is similar to the test compound in structure was used. The changes in the coronary perfusate flow and the cardiac function (heart rate × left ventricular pressure) caused by these compounds were expressed as percent changes from the preperfusion values of the compound (13) or nicorandil.

[2] = tested on: beagles; test: Hemodynamic profile in beagles (intravenously); assay type: in vivo; conditions: peak percent change from pretreatment
Experimental: Hemodynamic profile of the compound of the present invention was investigated in beagles anesthetized with pentobarbital (30 mg/kg, intravenously) [test compound: N-cyano-N′-(2-nitroxyethyl)-3-pyridinecarboximidamide (compound (13))]. The thorax was opened under artificial respiration. After administering heparin in an amount of 500 units/kg, a Moravitz's cannula was introduced into the coronary sinus via the right atrium. The coronary sinus outflow was returned to the right external jagular vein. The coronary sinus outflow was measured by an electromagnetic flowmeter (MFU-2100, manufactured by Nihon Kohden) connected to the Moravitz's cannula. A cannula was inserted into the aortic arch through the subclavian artery to measure aortic blood pressure. The aortic blood pressure was measured with a pressure transducer (Nihon Kohden, TP-200T). Heart rate was monitored with a heart rate counter with R waves of electrocardiogram. All parameters were recorded on a thermosensitive recorder (WT-685G, manufactured by Nihon Kohden).
The compound was administered through the cannula inserted into the right femoral vein. Nicorandil was used as a control. As for respective measurement items, peak changes were expressed as percent change from the pretreatment values of the compound (13) or nicorandil.

[3] = tested on: isolated heart of rats; test: Myocardiac injury induced by re-perfusion after ischemia (isolated heart of rats); conditions: 1×10⁻⁶ mole/min, after 30 minutes re-perfusion, mean ± SD
Experimental: The cardiac muscle protecting effect of the compound of the present invention was tested by using the isolated heart of rats [test compound: N-cyano-N′-(2-nitroxyethyl)-3-pyridinecarboximidamide (compound (13))]. The Langendorff's method was used in the same manner as in the aforementioned Referential Example 1)-6. The isolated heart was perfused with a perfusate for 30 minutes and then with a perfusate containing the test compound for 10 minutes, and perfusion was stopped so that the heart was in the so-called "ischemic state". Pacing was performed during the ischemia. […] Parameters of cardiac function after the onset of re-perfusion was monitored for 30 minutes, and the heart was quickly freezed. The amount of ATP in the heart muscle was extracted with perchloric acid and determined by HPLC. Nicorandil was used as a control.
The recovery rate of the cardiac function (heart rate × left ventricular pressure) after onset of reperfusion was calculated based on the cardiac function prior to the perfusion of the compound (13) and nicorandil as 100%. The amount of ATP in the heart muscle was also determined.

[4] = tested on: isolated rat aortae; test: Vasorelaxing effect on the isolated rat aortae (Referential Example 2)-1); conditions: inhibition of contraction induced by 40 mM KCl, read-out: IC₅₀ Value
Experimental: (§1) The compounds of the present invention were tested for their physiological activities by measuring the tension of isolated rat aortae isometrically.
Thoracic aortae obtained from male Wistar rats (weighing 250-350 g) were cut into ring segments about 3 mm long. The ring preparation was placed in an organ bath filled with 10 ml of Krebs-Ringer solution which was maintained at 37°C and gassed with 95% O₂ - 5% CO₂.
The preparation in the organ bath was allowed to equilibrate under resting tension 1 g. After equilibration period, the solution in the organ bath was replaced with an isotonic solution containing 40 mM KCl to contract the preparation.
(§2) After the contraction induced by KCl had reached plateau, the concentration-response relationship for the test compound was determined by means of cumulative addition.
(§3) The relaxation response of the test compounds was expressed as the percent inhibition of the contraction induced by KCl, and the IC₅₀ value, which is a concentration required for inhibiting the contraction induced by KCl to an extent of 50%, was calculated by the Probit method from the concentration-response curve.

[5] = tested on: isolated rat aortae; test: Vasorelaxing effect on the isolated rat aortae (Referential Example 1)-1); conditions: inhibition of contraction induced by 40 mM KCl
Experimental: as §1
Thoracic aortae obtained from male Wistar rats (weighing 250-350 g) were cut into ring segments about 3 mm long. The ring preparation was placed in an organ bath filled with 10 ml of Krebs-Ringer solution that was maintained at 37°C and gassed with 95% O₂ - 5% CO₂.
The preparation in the organ bath was allowed to equilibrate under resting tension of 1 g. After equilibration period, the solution in the organ bath was replaced with an isotonic solution containing 40 mM KCl to contract the preparation.
as §2, §3

[6] = tested on: potassium channel; test: Potassium channel activating effect (86Rb efflux from rat thoracic aorta); conditions: compound 10⁻⁴ M for 8 minutes, percent of the efflux before application
Experimental: Male Wistar rats (weighing 250-350 g) were dehematized to death, and thoracic aortae were rapidly isolated. The aorta was opened along the longitudinal axis to prepare a flat sheet. The preparation was loaded with ⁸⁶Rb in the Krebs-Ringer solution which contained ⁸⁶Rb in the concentration of 10 µCi/ml and was gassed with 95% O₂ - 5% CO₂ at 37°C for 2 hours. The preparation was then transferred to a Krebs-Ringer solution not containing ⁸⁶Rb, and washed to remove excess radioactivity for 18 minutes by refreshing the solution every 2 minutes. Finally the preparation was placed into a Krebs-Ringer solution containing each compound (10⁻⁴ M) for 8 minutes.
The amount of ⁸⁶Rb efflux from the preparation in each period was determined with a γ-counter.
The increment in efflux rate during the application of the compound was expressed as percent of the efflux before the application of the compound.

[7] = tested on: spontaneous hypertensive rats (SHR); test: Hypotensive effect on spontaneous hypertensive rats (intravenously) (Referential Example 1)-3); assay type: in vivo; conditions: Rattus norvegicus, iv, anesthetized SHR, dose descending mean blood pressure by 20%; read-out: ED₂₀ (mg/kg, i.v.)
Experimental: (§4) Rats were anesthetized with urethane-α-chloralose (1 g/kg - 25 mg/kg; intraperitoneally). Mean blood pressure was measured by a pressure transducer through a cannula inserted into the carotid artery. The compound was cumulatively administered every 30 minutes through the cannula inserted into the jagular vein. The change in blood pressure was expressed as percent of the blood pressure before the administration of the compound. And the ED₂₀ value, which was the dose required for descending blood pressure to an extent of 20%, was calculated from the dose-response curve.

[8] = tested on: spontaneous hypertensive rats (SHR); test: Hypotensive effect on spontaneous hypertensive rats (intravenously) (Referential Example 2)-2); assay type: in vivo; conditions: Rattus norvegicus, iv, anesthetized SHR, dose decreasing mean blood pressure by 20%; read-out: ED₂₀ (mg/kg, i.v.)
Experimental: as §4, with “decreasing” for “descending”

SMILES | IC50 [4] | IC50 [5] | ED20 [7] | further results
O=C(NCCO[N+](=O)[O-])c1cccnc1 [Nicorandil, nicorandil, reference compound] |  |  |  | Coronary Perfusate Flow (% change) ([1]; perfusion 10 minutes): 3.3±5.6 % change; Cardiac Function ([1]; heart rate × left ventricular pressure, percent change from preperfusion): 3.7±6.7%; Coronary Blood Flow ([2]; i.v. 100.0 µg/kg): 20.3±5.1%; Heart Rate ([2]; i.v. 100.0 µg/kg): 0.2±2.1%; Mean Aortic Blood Pressure ([2]; i.v. 100.0 µg/kg): -21.3±1.9%; Coronary Blood Flow ([2]; i.v. 300.0 µg/kg): 84.9±10.8%; Heart Rate ([2]; i.v. 300.0 µg/kg): -20.7±1.9%; Mean Aortic Blood Pressure ([2]; i.v. 300.0 µg/kg): -43.1±5.4%; Amount of ATP in the heart muscle (µmole/g of dry weight) [3]: 5.93±0.49 (4) µmole/g of dry weight
N#CNC(=NCCO[N+](=O)[O-])c1ccoc1 [(64), N-cyano-N′-(2-nitroxyethyl)-3-furancarboximidamide] | 8 µM |  |  | 
N#CNC(=NCCO[N+](=O)[O-])c1cnc2ccccc2c1 [Compound (59), N-cyano-N′-(2-nitroxyethyl)-3-quinolinecarboximidamide] | 24 µM |  |  | 
N#CNC(=NCCc1ccccc1)c1cccs1 [(67), N-cyano-N′-(2-phenylethyl)-2-thiophenecarboximidamide] | 19 µM |  |  | 
CSC(=NC#N)NCCO[N+](=O)[O-] [(70), 3-Cyano-2-methyl-1-(2-nitroxyethyl)-isothiourea] | 4.3 µM |  |  | 
N#CNC(=NCc1ccccc1)c1cccnc1 [(17), N-cyano-N'-benzyl-3-pyridinecarboximidamide] |  | 66 µM | 0.25 mg/kg | Increment of Efflux (%) [6]: 135.41%
N#CNC(=NCCO[N+](=O)[O-])c1ccncc1 [(41), N-cyano-N'-(2-nitroxyethyl)-4-pyridinecarboximidamide] |  | 12 µM | 0.13 mg/kg | Increment of Efflux (%) [6]: 126.88%
N#CNC(=NCCO[N+](=O)[O-])c1cnccn1 [(61), N-cyano-N′-(2-nitroxyethyl)pyrazinecarboximidamide] | 53 µM |  |  | 
N#CNC(=NCCc1ccccc1)c1ccco1 [(63), N-cyano-N′-(2-phenylethyl)-2-furancarboximidamide] | 18 µM |  |  | 
N#CNC(=NCCc1ccccc1Cl)c1cccnc1 [(29), N-cyano-N'-[2-(2-chlorophenyl)ethyl]-3-pyridinecarboximidamide] |  | 38 µM | 0.013 mg/kg | 
N#CNC(=NCCO[N+](=O)[O-])c1ccccn1 [Compound (1), N-cyano-N'-(2-nitroxyethyl)-2-pyridinecarboximidamide] |  | 4.6 µM | 0.037 mg/kg | 
N#CNC(=NCCO[N+](=O)[O-])c1cccs1 [(66), N-cyano-N′-(2-nitroxyethyl)-2-thiophenecarboximidamide] | 9.6 µM |  |  | ED20 [8]: 0.115 mg/kg
N#CNC(=NCCc1ccccc1)c1ccsc1 [(68), N-cyano-N′-(2-phenylethyl)-3-thiophenecarboximidamide] | 92 µM |  |  | 
N#CNC(=NCCO[N+](=O)[O-])c1ccco1 [(62), N-cyano-N′-(2-nitroxyethyl)-2-furancarboximidamide] | 26 µM |  |  | ED20 [8]: 0.025 mg/kg
N#CNC(=NCCc1ccccc1)c1cccnc1 [(27), N-cyano-N'-(2-phenylethyl)-3-pyridinecarboximidamide] |  | 40 µM | 0.074 mg/kg | Increment of Efflux (%) [6]: 206.61%

Reference: EP0388528B1, “Carboximidamide derivatives” (KIRIN BEER KABUSHIKI KAISHA, priority 1988, dated 1990)
